Laboratory results reported in the supplement of paper PMC10307832.

Experiments:
Experiment in all cases: relative viability (nuclei count vs DMSO), 5 days (fraction); higher = more cells survive
HCC-366 = system: HCC-366
Method in brief: (§1)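 Lung cancer cell lines were pin-tool dosed in 1536-well plates on the day after seeding, with either a lone drug or a fixed anchor-drug dose plus five library-drug doses (not always all listed) in √10 steps. Nuclei were counted on 4× images after 5 days. Relative viability is the ratio of treated-well to vehicle-well nuclei counts, with each value a median of duplicate plates.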

HCC-44 = system: HCC-44
Method in brief: as §1

LOU-NH91 = system: LOU-NH91
Method in brief: as §1

LXF-289 = system: LXF-289
Method in brief: as §1

NCI-H1437 = system: NCI-H1437
Method in brief: as §1

NCI-H1648 = system: NCI-H1648
Method in brief: as §1

NCI-H2085 = system: NCI-H2085
Method in brief: as §1

NCI-H3122 = system: NCI-H3122
Method in brief: as §1

SMILES	relative viability (HCC-366; first compound 0.005 µM)	relative viability (HCC-366; first compound 0.01581 µM)	relative viability (HCC-366; first compound 0.05 µM)	relative viability (HCC-366; first compound 0.1581 µM)	relative viability (HCC-366; first compound 0.5 µM)	relative viability (HCC-44; first compound 0.005 µM)	relative viability (HCC-44; first compound 0.01581 µM)	relative viability (HCC-44; first compound 0.05 µM)	relative viability (HCC-44; first compound 0.1581 µM)	relative viability (HCC-44; first compound 0.5 µM)	relative viability (LOU-NH91; first compound 0.005 µM)	relative viability (LOU-NH91; first compound 0.01581 µM)	relative viability (LOU-NH91; first compound 0.05 µM)	relative viability (LOU-NH91; first compound 0.1581 µM)	relative viability (LOU-NH91; first compound 0.5 µM)	relative viability (LXF-289; first compound 0.005 µM)	relative viability (LXF-289; first compound 0.01581 µM)	relative viability (LXF-289; first compound 0.05 µM)	relative viability (LXF-289; first compound 0.1581 µM)	relative viability (LXF-289; first compound 0.5 µM)	relative viability (NCI-H1437; first compound 0.005 µM)	relative viability (NCI-H1437; first compound 0.01581 µM)	relative viability (NCI-H1437; first compound 0.05 µM)	relative viability (NCI-H1437; first compound 0.1581 µM)	relative viability (NCI-H1437; first compound 0.5 µM)	relative viability (NCI-H1648; first compound 0.005 µM)	relative viability (NCI-H1648; first compound 0.01581 µM)	relative viability (NCI-H1648; first compound 0.05 µM)	relative viability (NCI-H1648; first compound 0.1581 µM)	relative viability (NCI-H1648; first compound 0.5 µM)	relative viability (NCI-H2085; first compound 0.005 µM)	relative viability (NCI-H2085; first compound 0.01581 µM)	relative viability (NCI-H2085; first compound 0.05 µM)	relative viability (NCI-H2085; first compound 0.1581 µM)	relative viability (NCI-H2085; first compound 0.5 µM)	relative viability (NCI-H3122; first compound 0.005 µM)	relative viability (NCI-H3122; first compound 0.01581 µM)	relative viability (NCI-H3122; first compound 0.05 µM)	relative viability (NCI-H3122; first compound 0.1581 µM)	relative viability (NCI-H3122; first compound 0.5 µM)
COc1cc2nccc(Oc3ccc(NC(=O)Nc4cc(C)on4)c(Cl)c3)c2cc1OC [Tivozanib] + CC(=O)Nc1cccc(-n2c(=O)n(C3CC3)c(=O)c3c(Nc4ccc(I)cc4F)n(C)c(=O)c(C)c32)c1 [Trametinib] (partner 0.02 µM)	0.363	0.349	0.341	0.323	0.426	0.992	1.09	1.05	1.09	1.07	0.736	0.805	0.784	0.744	0.767	0.698	0.674	0.629	0.646	0.668	0.567	0.535	0.592	0.49	0.522	0.478	0.604	0.473	0.442	0.429	0.51	0.602	0.543	0.437	0.511	0.197	0.213	0.229	0.235	0.321
COc1cc2nccc(Oc3ccc(NC(=O)Nc4cc(C)on4)c(Cl)c3)c2cc1OC [Tivozanib] + CC(=O)c1c(C)c2cnc(Nc3ccc(N4CCNCC4)cn3)nc2n(C2CCCC2)c1=O [Palbociclib] (partner 0.5 µM)	0.394	0.422	0.362	0.343	0.322	0.958	0.914	0.989	0.987	0.922	0.431	0.498	0.513	0.549	0.538	0.575	0.576	0.6	0.66	0.612	0.364	0.344	0.286	0.368	0.26	0.31	0.272	0.269	0.244	0.231	0.458	0.478	0.512	0.512	0.503	0.164	0.207	0.187	0.212	0.184
COc1cc2nccc(Oc3ccc(NC(=O)Nc4cc(C)on4)c(Cl)c3)c2cc1OC [Tivozanib] + Nc1nc2[nH]cc(CCc3ccc(C(=O)N[C@@H](CCC(=O)O)C(=O)O)cc3)c2c(=O)[nH]1 [Pemetrexed] (partner 0.2 µM)	0.16	0.192	0.162	0.234	0.126	0.651	0.62	0.687	0.802	0.627	0.341	0.364	0.371	0.525	0.338	0.853	0.9	0.929	1.04	0.887	0.251	0.287	0.366	0.313	0.31	0.723	0.704	0.778	0.652	0.546	0.925	0.964	0.872	0.9	0.899	0.197	0.222	0.198	0.204	0.19
